Source: patent US10947242B2, “[1,2,4]triazolo[1,5and#8208;A]pyrimidine compounds as PDE2 inhibitors” (Janssen Pharmaceutica NV, priority 2016, dated 2021)
pIC50: −log10 of the molar value. Where two headings read alike, the source gives them in different places.

Legend:
[1] = molecular target: T1, Human recombinant PDE2A (hPDE2A) (Homo sapiens, UniProt O00408); experiment: In vitro assay PDE2A (SPA, 3H-cGMP hydrolysis); type: biochemical; settings: for IC50: read-out: hPDE2A pIC50 (converted); for Emax: read-out: hPDE2A Emax; for pIC50: hPDE2A pIC50
T1 construct: His tag (inferred from metal chelate purification); made in house; host or cells: Sf9 insect cells (baculovirus)
T1 sequence (O00408 whole entry): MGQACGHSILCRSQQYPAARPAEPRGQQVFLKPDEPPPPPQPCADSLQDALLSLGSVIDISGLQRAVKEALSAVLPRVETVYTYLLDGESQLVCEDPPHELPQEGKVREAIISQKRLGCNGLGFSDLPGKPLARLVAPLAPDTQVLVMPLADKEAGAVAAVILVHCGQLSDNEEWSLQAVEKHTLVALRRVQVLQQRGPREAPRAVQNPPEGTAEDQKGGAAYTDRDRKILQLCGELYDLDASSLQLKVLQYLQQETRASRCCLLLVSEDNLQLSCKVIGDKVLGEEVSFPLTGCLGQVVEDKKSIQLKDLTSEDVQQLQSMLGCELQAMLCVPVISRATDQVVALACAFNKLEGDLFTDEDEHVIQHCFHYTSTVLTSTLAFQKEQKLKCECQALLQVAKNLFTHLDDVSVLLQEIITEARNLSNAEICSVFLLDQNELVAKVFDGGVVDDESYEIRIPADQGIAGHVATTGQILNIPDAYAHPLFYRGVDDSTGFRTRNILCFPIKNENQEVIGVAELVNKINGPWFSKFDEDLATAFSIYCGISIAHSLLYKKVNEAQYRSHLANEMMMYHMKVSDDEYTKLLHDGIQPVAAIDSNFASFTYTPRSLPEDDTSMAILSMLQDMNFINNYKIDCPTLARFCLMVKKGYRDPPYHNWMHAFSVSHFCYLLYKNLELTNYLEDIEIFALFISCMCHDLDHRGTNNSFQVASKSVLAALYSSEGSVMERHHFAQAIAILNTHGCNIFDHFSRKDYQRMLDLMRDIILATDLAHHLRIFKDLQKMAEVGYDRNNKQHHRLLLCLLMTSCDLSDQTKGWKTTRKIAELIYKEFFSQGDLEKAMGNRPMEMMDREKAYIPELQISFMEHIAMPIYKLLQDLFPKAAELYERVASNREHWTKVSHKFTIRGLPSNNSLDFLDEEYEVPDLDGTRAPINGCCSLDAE

PDE2A = molecular target: T2, PDE2A (Rattus norvegicus, UniProt Q01062); experiment: PDE2 occupancy by test compounds, ex-vivo autoradiography with [3H]B-17a; type: in vivo, Male Wistar rats; settings: for ED50: read-out: PDE Occupancy ED50; for receptor occupancy at 10 mg/kg: percentage receptor occupancy, ex-vivo autoradiography, striatum
T2 construct: Twenty μm-thick striatal sections were cut; from tissue; host or cells: rat brain, striatal sections
T2 sequence (Q01062 1-928): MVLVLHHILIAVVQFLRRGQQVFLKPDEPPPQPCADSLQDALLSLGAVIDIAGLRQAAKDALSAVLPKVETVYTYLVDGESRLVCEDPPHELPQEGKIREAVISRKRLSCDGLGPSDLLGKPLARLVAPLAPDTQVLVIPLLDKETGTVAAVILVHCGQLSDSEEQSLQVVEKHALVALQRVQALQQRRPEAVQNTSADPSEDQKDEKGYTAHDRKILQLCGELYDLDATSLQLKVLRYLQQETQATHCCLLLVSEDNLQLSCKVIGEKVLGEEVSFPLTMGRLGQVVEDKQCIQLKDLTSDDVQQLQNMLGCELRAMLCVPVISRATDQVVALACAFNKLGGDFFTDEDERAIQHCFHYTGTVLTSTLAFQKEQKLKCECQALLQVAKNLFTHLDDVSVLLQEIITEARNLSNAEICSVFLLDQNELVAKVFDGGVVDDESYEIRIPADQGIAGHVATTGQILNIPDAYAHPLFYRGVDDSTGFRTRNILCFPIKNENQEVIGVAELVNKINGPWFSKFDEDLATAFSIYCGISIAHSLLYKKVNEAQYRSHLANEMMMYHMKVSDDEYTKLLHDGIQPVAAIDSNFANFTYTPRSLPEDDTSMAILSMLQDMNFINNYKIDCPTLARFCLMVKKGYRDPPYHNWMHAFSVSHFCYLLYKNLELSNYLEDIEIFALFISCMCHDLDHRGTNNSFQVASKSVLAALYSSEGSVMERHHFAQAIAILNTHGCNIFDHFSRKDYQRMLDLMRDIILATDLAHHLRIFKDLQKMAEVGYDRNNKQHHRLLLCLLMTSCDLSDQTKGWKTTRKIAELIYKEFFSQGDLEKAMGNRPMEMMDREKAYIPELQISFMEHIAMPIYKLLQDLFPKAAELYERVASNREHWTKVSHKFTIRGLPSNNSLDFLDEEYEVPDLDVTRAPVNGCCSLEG

[2] = molecular target: T3, Human recombinant PDE10A (hPDE10A) (Homo sapiens, UniProt Q9Y233); experiment: In vitro assay PDE10A, human clone (SPA, 3H-cAMP hydrolysis); type: biochemical
T3 construct: His tag (inferred from metal chelate purification); made in house; host or cells: Sf9 insect cells (baculovirus)
T3 sequence (Q9Y233 267-1055): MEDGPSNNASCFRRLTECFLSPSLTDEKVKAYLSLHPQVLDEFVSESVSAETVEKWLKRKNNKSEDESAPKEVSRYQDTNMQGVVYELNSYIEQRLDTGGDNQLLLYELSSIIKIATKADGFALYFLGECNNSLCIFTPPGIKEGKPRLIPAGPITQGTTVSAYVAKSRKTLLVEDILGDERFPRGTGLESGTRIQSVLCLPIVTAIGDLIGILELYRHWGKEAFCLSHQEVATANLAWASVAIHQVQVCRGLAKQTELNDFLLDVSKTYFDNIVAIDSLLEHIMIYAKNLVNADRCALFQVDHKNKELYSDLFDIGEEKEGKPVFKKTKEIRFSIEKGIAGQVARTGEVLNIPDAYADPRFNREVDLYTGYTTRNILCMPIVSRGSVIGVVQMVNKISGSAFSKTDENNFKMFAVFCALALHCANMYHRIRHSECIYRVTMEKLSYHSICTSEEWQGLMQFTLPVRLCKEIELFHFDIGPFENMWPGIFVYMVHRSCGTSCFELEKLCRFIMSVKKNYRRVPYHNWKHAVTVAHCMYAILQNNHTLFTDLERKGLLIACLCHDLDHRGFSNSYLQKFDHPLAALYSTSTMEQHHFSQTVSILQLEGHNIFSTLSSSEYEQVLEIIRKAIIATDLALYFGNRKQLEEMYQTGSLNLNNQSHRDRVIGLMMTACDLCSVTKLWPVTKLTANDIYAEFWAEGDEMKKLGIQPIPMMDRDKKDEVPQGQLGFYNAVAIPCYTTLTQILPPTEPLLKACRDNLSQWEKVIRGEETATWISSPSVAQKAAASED
Method in brief: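 Human recombinant PDE10A was expressed in Sf9 cells via baculovirus and incubated with compound in 50 mM Tris pH 7.8, 8.3 mM MgCl2, 1.7 mM EGTA. Substrate was 60 nM cAMP plus 0.008 μCi 3H-cAMP for 60 min at room temperature, read by SPA scintillation counting. Controls used 1% DMSO, and blanks omitted enzyme.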

[3] = molecular target: T4, Human recombinant PDE3A (hPDE3A) (Homo sapiens, UniProt Q14432); experiment: In vitro assay PDE3A (SPA, 3H-cAMP hydrolysis); type: biochemical; settings: for IC50: hPDE3B pIC50, read-out: pIC50 (converted); for Emax: read-out: hPDE3B Emax, read-out: Emax;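 as to all read-outs here: the method names PDE3A and the table heading PDE3B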
T4 construct: purchased Scottish Biomedical; host or cells: Sf9 insect cells
T4 sequence (Q14432 whole entry): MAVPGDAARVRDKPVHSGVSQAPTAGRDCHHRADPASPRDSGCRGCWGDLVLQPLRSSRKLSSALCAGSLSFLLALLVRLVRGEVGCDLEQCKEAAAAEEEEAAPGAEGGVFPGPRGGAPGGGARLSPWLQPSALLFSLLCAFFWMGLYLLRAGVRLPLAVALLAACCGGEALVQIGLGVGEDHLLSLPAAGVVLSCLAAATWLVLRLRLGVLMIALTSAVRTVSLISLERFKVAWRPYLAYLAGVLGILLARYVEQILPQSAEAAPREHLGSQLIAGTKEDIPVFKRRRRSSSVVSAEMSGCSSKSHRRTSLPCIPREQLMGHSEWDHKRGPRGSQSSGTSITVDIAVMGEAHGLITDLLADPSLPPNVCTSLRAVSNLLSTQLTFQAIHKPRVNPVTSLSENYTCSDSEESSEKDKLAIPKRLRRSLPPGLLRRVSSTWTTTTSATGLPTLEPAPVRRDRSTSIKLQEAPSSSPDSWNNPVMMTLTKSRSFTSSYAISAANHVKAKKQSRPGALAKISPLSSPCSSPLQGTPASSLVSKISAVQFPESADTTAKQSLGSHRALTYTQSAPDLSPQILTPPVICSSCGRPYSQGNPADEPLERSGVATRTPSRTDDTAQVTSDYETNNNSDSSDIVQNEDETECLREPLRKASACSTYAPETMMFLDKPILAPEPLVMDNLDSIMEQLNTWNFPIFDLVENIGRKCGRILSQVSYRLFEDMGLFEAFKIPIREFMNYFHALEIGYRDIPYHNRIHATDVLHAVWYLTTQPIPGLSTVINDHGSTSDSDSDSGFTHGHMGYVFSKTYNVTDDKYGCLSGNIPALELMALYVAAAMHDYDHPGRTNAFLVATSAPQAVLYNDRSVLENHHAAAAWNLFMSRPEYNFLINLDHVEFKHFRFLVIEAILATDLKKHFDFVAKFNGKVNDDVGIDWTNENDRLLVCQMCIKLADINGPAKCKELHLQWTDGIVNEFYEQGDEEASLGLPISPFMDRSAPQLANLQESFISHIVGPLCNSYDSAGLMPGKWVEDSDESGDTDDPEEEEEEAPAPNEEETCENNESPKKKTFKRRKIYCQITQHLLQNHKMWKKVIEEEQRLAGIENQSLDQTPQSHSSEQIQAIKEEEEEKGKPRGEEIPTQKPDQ
Method in brief: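 Human PDE3A, cloned from brain, as partially purified Sf9 lysate. Substrate 0.4 μM cAMP plus [3H]-cAMP (2.4 μCi/ml final) in 50 mM Tris pH 7.8, 8.3 mM MgCl2, 1.7 mM EGTA, 60 min at room temperature, 1% DMSO final. Hydrolysis read by SPA scintillation counting against no-enzyme blanks and DMSO controls.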

[4] = route PO (oral), drug dose producing 50% receptor occupancy
[5] = human clone (h), default, read-out: hPDE10A2 Emax
[6] = human clone (h), default, read-out: hPDE10A2 pIC50 (converted)
[7] = human clone by default (no (r) mark), read-out: hPDE10A2 or rPDE10A2 Emax
[8] = human clone by default (no (r) mark), read-out: hPDE10A2 or rPDE10A2 pIC50 (converted)

| IC50 ([1]; human recombinant PDE2A, 10 μM cGMP substrate) | Emax ([1]; human recombinant PDE2A) | IC50 [1] | ED50 (PDE2A; [4]) | receptor occupancy at 10 mg/kg (PDE2A; sc, route SC (subcutaneous)) | Emax [2, 5] | IC50 [2, 6] | receptor occupancy at 10 mg/kg (PDE2A; po, route PO (oral)) | SMILES | melting point | Emax [1] | Emax [2, 7] | IC50 [2, 8] | IC50 [3] | Emax [3] | receptor occupancy at 10 mg/kg (PDE2A; route PO (oral)) | ED50 (PDE2A; po) | pIC50 [1] |
| --- | --- | --- | --- | --- | --- | --- | --- | --- | --- | --- | --- | --- | --- | --- | --- | --- | --- |
| 0.000224 µM | 100% | 0.000224 µM | 1.5 mg/kg | 92% | 100% | 0.017 µM | – | C[C@@H]1CCN(C(=O)c2ccc3ncsc3c2)C[C@H]1c1cc(C(F)F)nc2ncnn12 [Compound 228] | 178.21 °C | 100% | 100% | 0.017 µM | 1.2 µM | 91% | – | – | – |
| – | – | 0.00234 µM | – | – | 96% | 0.269 µM | 6% | Cc1cc([C@@H]2CN(C(=O)c3cc(Cl)ncc3C(F)(F)F)CC[C@H]2C)n2ncnc2n1 [Compound 270] | 213.25 °C | 100% | 96% | 0.269 µM | > 10 µM | 29% | – | – | – |
| – | – | 0.00166 µM | 4.2 mg/kg | – | – | – | 57% | Cc1cc(C(=O)N2CC[C@@H](C)[C@H](c3cc(C(F)F)nc4ncnn34)C2)cc(OC(F)F)n1 [Compound 281] | 114.59 °C | 100% | 99% | 0.11 µM | 2.24 µM | 87% | – | – | – |
| – | – | 0.00288 µM | 11.8 mg/kg | – | – | – | 47% | COc1nc(C)cc(C(=O)N2CC[C@@H](C)[C@H](c3cc(C(F)F)nc4ncnn34)C2)c1F [Compound 282] | 193.33 °C | 100% | 98% | 0.275 µM | 1.7 µM | 88% | – | – | – |
| – | – | 0.000631 µM | – | – | – | – | -18% | C[C@@H]1CCN(C(=O)c2cn(C)c3ccccc23)C[C@H]1c1cc(C(F)F)nc2ncnn12 [Compound 328] | 247.48 °C | 100% | 100% | 0.0617 µM | 1.48 µM | 90% | – | – | – |
| – | – | 0.00479 µM | – | – | – | – | 8% | C[C@@H]1CCN(C(=O)c2ccc3ncc(F)cc3c2)C[C@H]1c1cc(C(F)F)nc2ncnn12 [Compound 332] | 183.18 °C | 99% | 98% | 0.0309 µM | 1.2 µM | 90% | – | – | – |

| SMILES | IC50 ([1]; human recombinant PDE2A, 10 μM cGMP substrate) | Emax ([1]; human recombinant PDE2A) | IC50 [1] | ED50 (PDE2A; [4]) | receptor occupancy at 10 mg/kg (PDE2A; sc, route SC (subcutaneous)) | Emax [2, 5] | IC50 [2, 6] | receptor occupancy at 10 mg/kg (PDE2A; po, route PO (oral)) | melting point | Emax [1] | Emax [2, 7] | IC50 [2, 8] | IC50 [3] | Emax [3] | receptor occupancy at 10 mg/kg (PDE2A; route PO (oral)) | ED50 (PDE2A; po) | pIC50 [1] |
| --- | --- | --- | --- | --- | --- | --- | --- | --- | --- | --- | --- | --- | --- | --- | --- | --- | --- |
| Cn1ccc2cc(C(=O)N3[C@H]4CC[C@H](c5cc(C(F)F)nc6ncnn56)[C@@H]3CC4)ccc21 [Compound 295] | – | – | 0.00049 µM | – | – | – | – | – | 178.8 °C | 101% | 98% | 0.245 µM | 0.977 µM | 94% | 71% | 5.63 mg/kg | – |
| O=C(c1cnc2c(Cl)cccc2c1)N1[C@H]2CC[C@H](c3cc(C(F)F)nc4ncnn34)[C@@H]1CC2 [Compound 310] | – | – | 0.00141 µM | – | – | – | – | – | 240.9 °C | 100% | 95% | 0.398 µM | 3.89 µM | 78% | 52% | 9.6 mg/kg | – |
| Cc1cc(C(=O)N2CC[C@@H](C)[C@H](c3cc(C(F)F)nc4ncnn34)C2)cc(C(F)F)n1 [Compound 321] | – | – | – | – | – | – | – | 73% | 137.5 °C | 101% | 97% | 0.309 µM | 8.13 µM | 45% | – | 3.37 mg/kg | 8.66 |
| C[C@@H]1CCN(C(=O)c2cc(Cl)cc(Cl)c2)C[C@H]1c1cc(C(F)F)nc2ncnn12 [Compound 334] | – | – | – | – | – | – | – | 17% | 239.87 °C | 100% | 98% | 0.1 µM | 2.34 µM | 84% | – | – | 8.61 |
| O=C(c1ccc2occc2c1)N1[C@H]2CC[C@H](c3cc(C(F)F)nc4ncnn34)[C@@H]1CC2 [Compound 353] | – | – | 0.00339 µM | – | – | – | – | – | 230.66 °C | 99% | 94% | 0.977 µM | 4.79 µM | 69% | 15% | – | – |
| O=C(c1ccc(Cl)c(Cl)c1)N1[C@H]2CC[C@H](c3cc(C(F)F)nc4ncnn34)[C@@H]1CC2 [Compound 356] | – | – | 0.00537 µM | – | – | – | – | – | 187.93 °C | 99% | 92% | 0.933 µM | 5.89 µM | 65% | 51% | 5.55 mg/kg | – |
| CCn1ccc2cc(C(=O)N3[C@H]4CC[C@H](c5cc(C(F)F)nc6ncnn56)[C@@H]3CC4)ccc21 [Compound 363] | – | – | 0.000275 µM | – | – | – | – | – | 221.75 °C | 99% | 98% | 0.178 µM | 0.617 µM | 97% | -11% | – | – |
